pIC50: −log10 of the molar value.
How the values were obtained:
DNA polymerase kappa = target: T1, DNA polymerase kappa (Homo sapiens, UniProt Q9UBT6); experiment: Inhibition of C-terminal His-6-tagged human DNA polymerase kappa expressed in Escherichia coli assessed as inhibition of incorporation of dTTP into poly(dA)/oligo(dT)18 after 60 mins
T1 sequence (Q9UBT6 whole entry): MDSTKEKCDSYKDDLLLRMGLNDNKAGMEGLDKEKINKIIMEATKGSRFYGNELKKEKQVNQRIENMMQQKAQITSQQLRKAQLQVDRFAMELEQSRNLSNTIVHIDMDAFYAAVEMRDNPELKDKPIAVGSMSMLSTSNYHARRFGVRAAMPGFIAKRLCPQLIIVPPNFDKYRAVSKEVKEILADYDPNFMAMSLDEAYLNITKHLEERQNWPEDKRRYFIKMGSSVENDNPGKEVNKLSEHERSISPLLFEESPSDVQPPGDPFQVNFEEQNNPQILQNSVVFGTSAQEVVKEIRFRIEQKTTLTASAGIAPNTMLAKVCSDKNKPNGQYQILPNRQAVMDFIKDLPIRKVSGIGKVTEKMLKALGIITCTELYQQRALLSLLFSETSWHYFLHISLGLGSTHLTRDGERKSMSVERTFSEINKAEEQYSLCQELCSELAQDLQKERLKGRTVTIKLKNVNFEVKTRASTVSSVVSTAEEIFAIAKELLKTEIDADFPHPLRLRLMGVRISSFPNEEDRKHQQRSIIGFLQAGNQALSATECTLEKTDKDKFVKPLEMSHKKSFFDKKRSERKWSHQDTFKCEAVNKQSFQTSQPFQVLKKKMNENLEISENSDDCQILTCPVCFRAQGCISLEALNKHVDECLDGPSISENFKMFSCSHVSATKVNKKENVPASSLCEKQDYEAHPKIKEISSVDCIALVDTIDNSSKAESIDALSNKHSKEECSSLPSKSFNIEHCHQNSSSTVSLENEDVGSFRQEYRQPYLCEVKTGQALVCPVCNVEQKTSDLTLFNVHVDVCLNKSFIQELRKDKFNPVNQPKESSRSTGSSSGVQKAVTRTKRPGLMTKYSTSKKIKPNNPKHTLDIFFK

Polynucleotide kinase = Polynucleotide kinase (Enterobacteria phage T4, UniProt P06855); experiment: Inhibition of T4 bacteriophage polynucleotide kinase assessed as inhibition of incorporation of dTTP into poly(dA)/oligo(dT)18 after 60 mins; set-up: species or system Tequatrovirus T4
Sequence of Polynucleotide kinase (P06855 whole entry): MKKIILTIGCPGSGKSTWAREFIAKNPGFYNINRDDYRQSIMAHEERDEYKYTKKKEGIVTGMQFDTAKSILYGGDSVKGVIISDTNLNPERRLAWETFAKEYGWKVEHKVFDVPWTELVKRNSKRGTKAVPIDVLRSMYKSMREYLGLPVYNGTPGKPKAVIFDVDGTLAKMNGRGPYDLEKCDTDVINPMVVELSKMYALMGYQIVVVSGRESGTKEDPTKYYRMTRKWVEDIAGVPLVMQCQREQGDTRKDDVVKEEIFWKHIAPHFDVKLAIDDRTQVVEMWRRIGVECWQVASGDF

[1] = target: Inosine-5'-monophosphate dehydrogenase 2 (Mus musculus, UniProt P24547); experiment: Inhibition of mouse IMP dehydrogenase 2 assessed as inhibition of incorporation of dTTP into poly(dA)/oligo(dT)18 after 60 mins
Sequence of Inosine-5'-monophosphate dehydrogenase 2 (P24547 whole entry): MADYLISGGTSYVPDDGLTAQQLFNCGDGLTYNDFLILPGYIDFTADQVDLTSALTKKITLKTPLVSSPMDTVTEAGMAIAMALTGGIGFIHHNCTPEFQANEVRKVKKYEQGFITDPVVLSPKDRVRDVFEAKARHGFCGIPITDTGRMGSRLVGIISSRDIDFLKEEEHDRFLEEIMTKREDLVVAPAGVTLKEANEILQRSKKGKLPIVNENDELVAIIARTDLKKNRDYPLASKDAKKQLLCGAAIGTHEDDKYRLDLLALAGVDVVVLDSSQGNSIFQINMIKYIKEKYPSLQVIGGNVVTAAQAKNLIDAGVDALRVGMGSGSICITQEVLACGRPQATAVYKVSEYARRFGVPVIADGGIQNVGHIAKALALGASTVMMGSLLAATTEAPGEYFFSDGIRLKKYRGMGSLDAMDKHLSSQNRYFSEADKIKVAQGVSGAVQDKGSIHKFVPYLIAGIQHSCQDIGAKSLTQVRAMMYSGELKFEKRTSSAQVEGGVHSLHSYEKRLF

[2] = Inhibition of human His-tagged DNA polymerase gamma expressed in baculovirus assessed as inhibition of incorporation of dTTP into poly(dA)/oligo(dT)18 after 60 mins
DNA polymerase lambda = target: T2, DNA polymerase lambda (Mus musculus, UniProt Q9QXE2); experiment: Inhibition of mouse DNA polymerase lambda assessed as inhibition of incorporation of dTTP into poly(dA)/oligo(dT)18 after 60 mins
T2 sequence (Q9QXE2 whole entry): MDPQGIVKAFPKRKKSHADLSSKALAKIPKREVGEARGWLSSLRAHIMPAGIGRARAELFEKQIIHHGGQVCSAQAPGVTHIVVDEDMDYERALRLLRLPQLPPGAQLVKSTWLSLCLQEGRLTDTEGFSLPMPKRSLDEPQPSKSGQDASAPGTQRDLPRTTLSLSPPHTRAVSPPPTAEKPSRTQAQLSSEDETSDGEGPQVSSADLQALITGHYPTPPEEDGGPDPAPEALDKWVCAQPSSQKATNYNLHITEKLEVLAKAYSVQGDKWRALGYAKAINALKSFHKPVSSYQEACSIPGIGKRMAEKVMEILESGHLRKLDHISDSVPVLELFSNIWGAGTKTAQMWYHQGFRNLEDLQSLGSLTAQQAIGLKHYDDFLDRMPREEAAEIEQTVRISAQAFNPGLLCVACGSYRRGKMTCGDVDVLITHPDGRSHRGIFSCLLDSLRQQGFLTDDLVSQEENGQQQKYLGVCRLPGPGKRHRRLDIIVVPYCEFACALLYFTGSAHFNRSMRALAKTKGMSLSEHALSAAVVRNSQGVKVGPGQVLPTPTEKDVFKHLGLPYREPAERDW

[3] = target: T3, DNA polymerase delta catalytic subunit (Drosophila melanogaster, UniProt P54358); experiment: Inhibition of fruit fly DNA polymerase delta assessed as inhibition of incorporation of dTTP into poly(dA)/oligo(dT)18 after 60 mins
T3 sequence (P54358 whole entry): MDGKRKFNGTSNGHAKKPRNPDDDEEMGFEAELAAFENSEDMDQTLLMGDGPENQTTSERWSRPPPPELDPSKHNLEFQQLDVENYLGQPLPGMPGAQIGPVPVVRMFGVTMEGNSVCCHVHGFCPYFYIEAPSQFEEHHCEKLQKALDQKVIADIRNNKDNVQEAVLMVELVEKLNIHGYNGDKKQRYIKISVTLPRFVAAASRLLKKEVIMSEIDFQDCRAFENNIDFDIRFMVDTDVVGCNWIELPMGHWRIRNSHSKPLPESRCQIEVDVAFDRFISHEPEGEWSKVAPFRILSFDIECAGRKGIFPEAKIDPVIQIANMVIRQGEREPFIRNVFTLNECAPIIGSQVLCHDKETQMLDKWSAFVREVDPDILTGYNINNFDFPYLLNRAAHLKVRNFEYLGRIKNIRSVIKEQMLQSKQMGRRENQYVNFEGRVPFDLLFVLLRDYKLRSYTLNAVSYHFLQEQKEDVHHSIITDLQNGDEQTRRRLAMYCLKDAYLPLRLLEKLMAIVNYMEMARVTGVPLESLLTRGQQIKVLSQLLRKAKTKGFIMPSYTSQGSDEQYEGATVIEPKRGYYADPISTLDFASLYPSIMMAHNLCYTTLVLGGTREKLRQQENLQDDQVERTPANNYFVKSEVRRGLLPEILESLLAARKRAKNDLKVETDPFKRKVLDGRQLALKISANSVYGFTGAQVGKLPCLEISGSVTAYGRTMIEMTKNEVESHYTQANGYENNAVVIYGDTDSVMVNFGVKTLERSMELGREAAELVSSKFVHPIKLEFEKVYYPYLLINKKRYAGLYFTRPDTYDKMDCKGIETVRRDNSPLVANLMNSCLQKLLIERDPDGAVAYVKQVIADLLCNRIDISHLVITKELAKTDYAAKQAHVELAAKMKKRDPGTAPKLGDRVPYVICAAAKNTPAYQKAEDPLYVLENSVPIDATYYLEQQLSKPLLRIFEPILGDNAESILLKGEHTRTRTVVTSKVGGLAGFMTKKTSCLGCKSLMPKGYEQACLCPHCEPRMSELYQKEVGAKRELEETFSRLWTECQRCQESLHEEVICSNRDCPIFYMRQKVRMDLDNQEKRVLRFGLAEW

Deoxyribonuclease-1 = Deoxyribonuclease-1 (Bos taurus, UniProt P00639); experiment: Inhibition of bovine deoxyribonuclease 1 assessed as inhibition of incorporation of dTTP into poly(dA)/oligo(dT)18 after 60 mins
Sequence of Deoxyribonuclease-1 (P00639 whole entry): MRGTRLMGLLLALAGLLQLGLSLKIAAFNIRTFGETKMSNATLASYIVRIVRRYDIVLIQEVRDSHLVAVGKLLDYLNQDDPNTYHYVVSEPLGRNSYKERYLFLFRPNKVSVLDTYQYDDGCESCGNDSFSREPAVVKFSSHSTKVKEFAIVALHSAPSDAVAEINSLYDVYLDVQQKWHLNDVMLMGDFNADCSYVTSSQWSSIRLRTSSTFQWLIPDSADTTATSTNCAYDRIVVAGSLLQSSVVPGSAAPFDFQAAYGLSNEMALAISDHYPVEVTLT

Measured: pIC50

CCCCC(=O)/C=C(C)/C=C/CCC(=O)N1CCCC1=O
< 3.70: all assays above

CCCC[C@@H](O)/C=C(C)/C=C/C=C/C(=O)N1CCCC1=O [PECILOCIN]
< 3.70: all assays above

CCCC[C@@H](O)/C=C(C)/C=C/C=C\C(=O)N1CCCC1=O
< 3.70: all assays above

CC(/C=C/CCC(=O)N1CCCC1=O)=C\C1CCCCO1 (stereo not drawn)
< 3.70: all assays above

— ChEMBL document CHEMBL3124747, “Formosusin A, a novel specific inhibitor of mammalian DNA polymerase β from the fungus Paecilomyces formosus” (Bioorg Med Chem, 2014)
